From patent EP4729511A1, “COMPOUND OR SALT THEREOF AND METHOD FOR PRODUCING SAME, COMPOSITION, HYDROGEN PEROXIDE REMOVER, AND CYTOTOXICITY INHIBITOR” (Nagase & Co., Ltd., priority 2023, dated 2024)

How the values were obtained:
[1] = Evaluation of hydrogen peroxide removal (OxiSelect hydrogen peroxide assay kit, ADHP/HRP fluorescence); format: biochemical; conditions: as the amount of Compound A increased (doubling dilutions from 10 µM); 4 µM hydrogen peroxide solution; 30 minutes at room temperature; control (Compound A: 0 µM) set as 100%
Procedure: The resulting Compound A (EGT-X) was subjected to several doubling dilutions from 10 µM with the buffer provided with a kit (OxiSelect hydrogen peroxide assay kit (manufactured by CELL BIOLABS, Inc.)), and 25 µL each of the resulting solutions was added to a 96 well plate. Also, a 4 µM solution in which hydrogen peroxide was diluted with the buffer provided with the kit was prepared, and 25 µL each of said solution was added to the 96 well plate. Further, a blank was prepared under the same conditions except for no hydrogen peroxide was added.
Subsequently, according to the protocol described in the kit, 50 µL each of a mixture of ADHP (10-acetyl-3,7-dihydroxyphenoxazine) and HRP(horseradish peroxidase) provided with the kit was added thereto, and the resulting mixture was stirred. After incubated at room temperature for 30 minutes, the fluorescence intensity was measured under the condition of excitation wavelength of 530 nm and fluorescence wavelength of 590 nm. The blank value was subtracted from each measurement value to calculate each value. The percentage values when EGT-X was added were calculated based on the control (Compound A: 0 µM) value set as 100%, and the results were plotted in a graph. (Figures 3 and 4).

HEK293 cells = experiment: Evaluation of cytotoxicity inhibition: hydrogen peroxide cytotoxicity against HEK293 cells in the presence of EGT-X (WST-1); format: cell-based; conditions: hydrogen peroxide 0.0015%, cultured 24 hours, WST-1 cell viability
Procedure: After 24 hours, 50 µL each of EGT-X dissolved in a DMEM and hydrogen peroxide dissolved in a DMEM was added to the plate, so that the hydrogen peroxide concentration would be 0 for the control and 0.0015% for the others, and the EGT-X concentration would be those shown in Figures (Figures 5 and 6). […] The absorbance at 450 nm was measured.

C[N+](C)(C)[C@@H](Cc1c[nH]c(Sc2[nH]c(=S)[nH]c2C[C@@H](C(=O)[O-])[N+](C)(C)C)n1)C(=O)[O-] [Compound A]
amount of the residual hydrogen peroxide [1]: decreased
concentration of EGT-X in the presence of which the cytotoxicity caused by hydrogen peroxide was inhibited (HEK293 cells): ≥ 125 µM
